Legend:
[1] = biological target: T1, mutant TRPA1 (Cys621, Cys641, Cys665, Lys721) (Homo sapiens, UniProt O75762, C621S/C641S/C665S); test: Calcium imaging of HEK293 cells transiently expressing mutant TRPA1; type: cell-based; settings: 100 μM iodoacetamide, 1 mM H2O2 or 100 μM 4-HNE
T1 construct: expressed in transfected cells; host or cells: HEK293
Procedure: (§1) Calcium Imaging and Analysis Calcium imaging and analysis was performed as previously described (See Meixiong, J. et al. Elife 8, (2019)). Briefly, cells were imaged in calcium imaging buffer (CIB; 10 mM HEPES, 1.2 mM NaHCO3, 130 mM NaCl, 3 mM KCl, 2.5 mM CaCl2, 0.6 mM MgCl2, 20 mM glucose, and 20 mM sucrose at pH 7.4 and 290-300 mOsm). To monitor changes in intracellular [Ca^2+]([Ca^2+]i), cells were loaded with either 1 μM Fura 2-AM (HEK293 cells) or 1 μM Fluo 4-AM (trigeminal neurons) for 30 min in the dark at 37° C. in CIB just prior to imaging. With Fura 2-AM, emission at 510 nm was monitored following excitation at both 340 nm and 380 nm. With Fluo 4-AM, emission at 520 nm was monitored following excitation at 488 nm. Cells were identified as positively responding if [Ca^2+]i rose by 15% compared to baseline. Damaged, detached, high-baseline, and motion-activated cells were excluded from analysis.
(§2) HEK293 cells were plated on poly-D-lysine-coated coverslips and transiently transfected with the vector backbone or constructs encoding WT or mutant TRPA1. Unless otherwise noted, cells were imaged for 30 s to establish a baseline before compounds were added. Vehicle was first applied for 30 s, after which 100 μM iodoacetamide, 1 mM H2O2, or 100 μM 4-HNE was applied. CSF from cases and controls was diluted into calcium imaging buffer 1:50 prior to each trial. 50 μM of the non-selective TRP channel inhibitor ruthenium red was applied at the end of every imaging trial.
(§3) ROS directly activated TRPA1 by covalently bonding or modifying a network of cysteine and lysine residues within the channel. Extensive work by several groups has pinpointed a collection of key residues in TRPA1, including Cys421, Cys621, Cys641, Cys665, and Lys721. To test which residues among these sense H2O2 and 4-HNE, each was mutated individually and in various combinations (FIGS. 7A and 7B). Triply mutating cysteines Cys621, Cys641, Cys665 to serine rendered TRPA1 insensitive to both iodoacetamide and H2O2 (FIGS. 2D-2E). […] These four residues position TRPA1 as both a key sensor and transducer of oxidative stress.

[2] = biological target: T2, TRPA1 (Homo sapiens, UniProt O75762); test: Calcium imaging of HEK293 cells transiently expressing WT TRPA1; type: cell-based; settings: for calcium response of cells transfected with the vector backbone alone: 100 μM iodoacetamide, control vector; for calcium response of cells transfected with the vector backbone alone / calcium response of cells expressing WT TRPA1: 1 mM H2O2 or 100 μM 4-HNE; for EC50: concentration-Ca2+ response, HEK-293 cells transfected with WT TRPA1
T2 construct: expressed in transfected cells; host or cells: HEK293
Procedure: as §1, §2

[3] = tested on: constrictive mouse model of trigeminal neuralgia; test: Cold allodynia (ice-cold acetone) after constriction of the maxillary nerve; type: in vivo; settings: WT mice, vs vehicle
Procedure: (§4) Constriction of the Maxillary Nerve Constriction of the maxillary division of trigeminal nerve was performed as previously described (See Benedetti, A., et al., Biochimica Et Biophysica Acta Bba—Lipids Lipid Metabolism 620, 281-296 (1980) and Vos, B., et al J Neurosci 14, 2708-2723 (1994)). The procedure was performed under direct visualization and control with a surgical microscope. Mice were first anesthetized with ketamine (100 mg/kg, i.p.) and xylazine (12.5 mg/kg, i.p.) and monitored by pinching the skin between the toes with forceps and monitoring for withdrawal. Mice were restrained with adhesive tape to a sterilized polystyrene board. Upon sufficient anesthesia, the scalp was shaved and an anterior to posterior skin incision was made at the midline to expose the nasal and maxillary bones. The maxillary nerve was exposed and carefully dissected free from the surrounding connective tissue. The distal end of the maxillary nerve was then loosely constricted using 8-0 silk sutures as a ligature. The sutures were tied using a slip knot followed by a normal knot, after which any remaining suture was cut free. The incision was then closed with a 4-0 silk suture. In the sham procedure, the left maxillary nerve was exposed but not constricted. Mice were monitored and rehydrated until fully recovered from anesthesia.
(§5) Pharmacologic Treatments Mice were dosed with either sulforaphane (10 mg/kg, i.p.), exemestane (10 mg/kg, i.p.), letrozole (10 mg/kg, i.p.), (+)-JQ-1 (40 mg/kg, i.p.), (−)-JQ-1 (40 mg/kg, i.p.), or ascorbate (100 mg/kg, i.p.) as indicated below. Mice were first dosed daily for two days before surgery and again daily just after behavior testing. For local exemestane treatment, exemestane (5 μL, 25 μg total) was applied directly to the maxillary nerve. Mice received a single dose during surgery. Mice were dosed with AM-0902 (30 mg/kg, p.o.). Mice were treated with AM-0902 were dosed 30 min prior to behavior testing. Mice were dosed with tamoxifen (75 mg/kg, i.p.). Mice were dosed once every 24 hrs over 5 consecutive days. Behavioral and molecular tests were only performed 7 or more days after the final tamoxifen injection.
Cold Allodynia Cold allodynia was assessed in C57BL/6J, TRPA1^+/+, TRPA1^−/−, Keap1(f/f), and Keap1(f/f)/CMV-CreER mice using ice-cold acetone as previously outlined (See Yoon, C., et al., Pain 59, 369-376 (1994)). Animals were placed individually in transparent plastic boxes and allowed to acclimatize to the environment for at least 30 min before testing. After habituation, 20 μl of cold acetone was applied to the ligated vibrissal pad skin surface. Cold allodynia was measured as the average time spent wiping the region in a 60 s period, with a maximum of 5 seconds between bouts of wiping. Allodynia was measured three times with 10 min between intervals. Changes in cold allodynia were considered relative to sham- or vehicle-treated animal controls. Behavior was assessed concomitantly or in a blocked manner with consideration for both genotype and treatment.

[4] = tested on: constrictive mouse model of trigeminal neuralgia; test: Mechanical allodynia (Von Frey filament) after constriction of the maxillary nerve; type: in vivo; settings: WT mice, vs vehicle
Procedure: as §4, §5
Mechanical Allodynia Mechanical allodynia was assessed in C57BL/6J, TRPA1^+/+, TRPA1^−/−, Keap1(f/f), and Keap1(f/f/CMV-CreER mice using a Von Frey filament as previously outlined (See Benedetti, A., et al., Biochimica Et Biophysica Acta Bba—Lipids Lipid Metabolism 620, 281-296 (1980) and Vos, B., et al J Neurosci 14, 2708-2723 (1994)). Animals were placed individually in transparent plastic boxes and allowed to acclimate to the environment for at least 30 min before testing. After habituation, a 0.04 g force Von Frey filament was used to stimulate the territory innervated by the maxillary nerve, including the vibrissal skin pad. Each mouse's response to the filament was scored from 0-4 on the scale below. Each mouse was scored ten times per day. Changes in mechanical allodynia were considered relative to sham- or vehicle-treated animal controls. Behavior was assessed concomitantly or in a blocked manner with consideration for both genotype and treatment. • 0—no response • 1—non-defensive response to the stimulus (e.g., mouse non-defensively explores filament) • 2—withdrawal response (e.g., mouse turns head away from filament) • 3—escape/attack response (e.g., mouse moves body away from filament and assumes crouching position against the box wall; actively attacks filament by biting and/or grabbing) • 4—asymmetric face grooming (e.g., mouse wipes stimulated facial area in uninterrupted series of at least three face-wash strokes)

[5] = tested on: constrictive mouse model of trigeminal neuralgia; test: as above; type: in vivo; settings: NRF2−/− mice; AM-0902 30 mg/kg, p.o., 30 min prior to behavior testing
[6] = tested on: constrictive mouse model of trigeminal neuralgia; test: Cold allodynia (ice-cold acetone) after constriction of the maxillary nerve; type: in vivo; settings: NRF2−/− mice; AM-0902 30 mg/kg, p.o., 30 min prior to behavior testing
[7] = tested on: mutant TRPA1 (Cys621, Cys641, Cys665, Lys721); test: Calcium imaging of HEK293 cells transiently expressing mutant TRPA1; type: cell-based; settings: 100 μM 4-HNE
Procedure: as §1, §2, §3

[8] = tested on: NRF2; test: NRF2/ARE Luciferase Reporter Assay (HEK293 stable cell line); type: cell-based, human; settings: NRF2-dependent luciferase activity, cells treated for 6 hours; read-out: EC50 for stimulating NRF2
Procedure: NRF2/ARE Luciferase Reporter Assay NRF2 activity was monitored with a reporter cell line in which changes in NRF2 activity are coupled to the expression of firefly luciferase (NRF2/ARE Luciferase Reporter HEK293 Stable Cell Line). Luciferase activity was quantified with the Luciferase Assay System as per the manufacturer's instructions. Briefly, cells were plated at 125,000 cells/well in a 24-well plate. The following day, cells were treated with either vehicle or varying doses of sulforaphane, exemestane, or JQ-1 for 6 hours. Cells were then lysed in passive lysis buffer (Promega E1941) supplemented with protease inhibitors (Sigma). Lysates were then cleared at 16,000 g for 15 minutes at 4° C. 15 μL of each lysate was mixed with 5 μL of luciferase assay substrate (Promega). Total light was measured using a luminometer with a 10 second integration time with a delay of 2 seconds. Luciferase measurements were normalized to total protein and reported as normalized to the vehicle condition.

[9] = i.p. daily for two days before surgery and daily after behavior testing, sulforaphane, exemestane, letrozole 10 mg/kg, JQ-1 40 mg/kg, ascorbate 100 mg/kg
[10] = AM-0902 30 mg/kg, p.o., 30 min prior to behavior testing

T2 sequence (O75762 whole entry): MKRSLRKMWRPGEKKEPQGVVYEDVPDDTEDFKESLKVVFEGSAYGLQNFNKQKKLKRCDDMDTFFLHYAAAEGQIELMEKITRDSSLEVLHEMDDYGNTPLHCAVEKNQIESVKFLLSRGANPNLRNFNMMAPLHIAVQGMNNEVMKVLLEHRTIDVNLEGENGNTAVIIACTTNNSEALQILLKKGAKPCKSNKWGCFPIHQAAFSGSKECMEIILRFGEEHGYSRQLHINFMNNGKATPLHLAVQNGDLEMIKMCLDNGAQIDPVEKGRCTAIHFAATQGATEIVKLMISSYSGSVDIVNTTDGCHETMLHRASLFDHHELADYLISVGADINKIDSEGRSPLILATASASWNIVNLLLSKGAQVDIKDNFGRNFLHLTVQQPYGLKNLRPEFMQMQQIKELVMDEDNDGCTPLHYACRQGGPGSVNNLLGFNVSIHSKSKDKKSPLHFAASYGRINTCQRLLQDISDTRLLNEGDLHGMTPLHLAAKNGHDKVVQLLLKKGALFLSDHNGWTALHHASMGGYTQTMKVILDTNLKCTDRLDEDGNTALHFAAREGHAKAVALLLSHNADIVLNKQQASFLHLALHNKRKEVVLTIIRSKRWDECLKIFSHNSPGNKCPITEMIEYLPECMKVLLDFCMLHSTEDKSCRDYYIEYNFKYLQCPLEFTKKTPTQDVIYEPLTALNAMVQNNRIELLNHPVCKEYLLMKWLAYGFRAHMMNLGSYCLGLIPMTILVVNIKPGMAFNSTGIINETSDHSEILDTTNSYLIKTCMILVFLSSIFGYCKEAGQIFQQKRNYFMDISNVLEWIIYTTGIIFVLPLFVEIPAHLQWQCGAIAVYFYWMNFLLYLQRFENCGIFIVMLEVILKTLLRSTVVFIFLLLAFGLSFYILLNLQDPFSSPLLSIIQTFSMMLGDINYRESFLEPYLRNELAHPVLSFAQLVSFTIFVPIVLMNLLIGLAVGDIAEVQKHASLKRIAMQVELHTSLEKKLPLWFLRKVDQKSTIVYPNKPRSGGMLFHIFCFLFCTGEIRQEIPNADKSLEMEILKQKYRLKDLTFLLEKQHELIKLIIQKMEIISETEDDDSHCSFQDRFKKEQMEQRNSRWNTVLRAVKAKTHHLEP
T1 sequence (O75762 whole entry C621S/C641S/C665S): as the sequence (O75762 whole entry) above, with C621S, C641S, C665S counted along it

Row | Structure (SMILES) | sensitivity of triple mutant TRPA1 (Cys621, Cys641, Cys665 to serine) [1] | calcium response of cells transfected with the vector backbone alone [2] | calcium response of cells expressing WT TRPA1 [2] | EC50 [2] | EC50 [8] | further results
1 | NC(=O)CI [iodoacetamide] | insensitive | Neither iodoacetamide, H2O2, nor 4-HNE elicited a calcium response | – | – | – | –
2 | N#Cc1ccc(C(c2ccc(C#N)cc2)n2cncn2)cc1 [letrozole] | – | – | – | – | – | cold allodynia (ice-cold acetone) [3, 9]: neither letrozole nor (−)-JQ-1 did; mechanical allodynia (sensitivity to crude touch) [4, 9]: neither letrozole nor (−)-JQ-1 did
3 | Cn1cnc2ncn(Cc3nc(CCc4ccc(Cl)cc4)no3)c(=O)c21 [AM-0902, 1-({3-(2-(4-chlorophenyl)ethyl]-1,2,4-oxadiazol-5-yl}methyl)-7-methylpurin-6-one] | – | – | – | – | – | cold allodynia [3, 10]: reduced; mechanical allodynia [4, 10]: reduced; mechanical allodynia [5]: lowered; cold allodynia [6]: lowered
4 | CCCCCC(O)/C=C/C=O (stereo not shown) [4-HNE, 4-hydroxynonenal] | still activated | Neither iodoacetamide, H2O2, nor 4-HNE elicited a calcium response | activated cells expressing TRPA1 | 48 µM | 12 µM | sensitivity of triple cysteine mutant TRPA1 after also mutating Lys721 [7]: no longer sensitive
5 | OO [H2O2] | insensitive | Neither iodoacetamide, H2O2, nor 4-HNE elicited a calcium response | activated cells expressing TRPA1 | 133 µM | 14 µM | –

Source: patent publication US20250064846A1, “TREATMENT AND PREVENTION OF TRIGEMINAL NEURALGIA” (THE JOHNS HOPKINS UNIVERSITY, priority 2022, published 2025)
